According to ChEMBL document CHEMBL1139643, “Cell differentiation inducers derived from thalidomide” (2005):

What was measured:
Format in all cases: functional
HL-60 [1] = assay: Percent cell proliferation of human leukemia cell line HL-60 at 1*E-5 M
HL-60 [2] = assay: NBT positivity against human leukemia cell line HL-60 at 1*E-5 M
HL-60 [3] = assay: NBT positivity against human leukemia cell line HL-60 at 3*E-6 M
HL-60 [4] = assay: Percent cell proliferation of human leukemia cell line HL-60 at 3*E-6 M
HL-60 [5] = assay: Percent cell proliferation of human leukemia cell line HL-60 at 1*E-8 M
HL-60 [6] = assay: NBT positivity against human leukemia cell line HL-60 at 1*E-8 M
HL-60 [7] = assay: Percent cell proliferation of human leukemia cell line HL-60 at 5*E-6 M
HL-60 [8] = assay: Percent cell proliferation of human leukemia cell line HL-60 at 1*E-6 M
HL-60 [9] = assay: NBT positivity against human leukemia cell line HL-60 at 5*E-6 M
HL-60 [10] = assay: NBT positivity against human leukemia cell line HL-60 at 1*E-6 M
HL-60 [11] = assay: NBT positivity against human leukemia cell line HL-60 at 2*E-9 M
HL-60 [12] = assay: Percent cell proliferation of human leukemia cell line HL-60 at 2*E-9 M

`O=C1CCC(N2C(=O)c3ccccc3C2=O)C(=O)N1O` (stereo not drawn) showed a Cell proliferation (HL-60 [1]) of 100% and an NBT positivity (HL-60 [2]) of 1%.
`CC1(N2C(=O)c3cccc(N)c3C2=O)CCC(=O)NC1=O` (stereo not drawn) was tested, and the Cell proliferation (HL-60 [1]) was 92% and the NBT positivity (HL-60 [2]) was 2%.
Compound `CC(C)c1cccc(C(C)C)c1N1C(=O)c2cccc(N)c2C1=O` has a Cell proliferation (HL-60 [1]) of 25%, an NBT positivity (HL-60 [3]) of 2% and a Cell proliferation (HL-60 [4]) of 73%. The NBT positivity (HL-60 [2]) was 16%.
For `O=C1CCC(N2C(=O)c3ccccc3C2=O)C(=O)N1` (stereo not drawn) [THALIDOMIDE], the Cell proliferation (HL-60 [1]) was 101% and the NBT positivity (HL-60 [2]) was 1%.
Work on `CC1(N2C(=O)c3ccc(N)cc3C2=O)CCC(=O)NC1=O` (stereo not drawn) yielded a Cell proliferation (HL-60 [1]) of 103% and an NBT positivity (HL-60 [2]) of 1%.
For `CC(C)c1cccc(C(C)C)c1N1C(=O)c2ccc(N)cc2C1=O`, the Cell proliferation (HL-60 [1]) was 53% and the NBT positivity (HL-60 [2]) was 5%.
`C=C1/C(=C\C=C2/CCC[C@]3(C)[C@@H]([C@H](C)CCCC(C)(C)O)CC[C@@H]23)C[C@@H](O)C[C@@H]1O` [CALCITRIOL] showed a Cell proliferation (HL-60 [5]) of 55% and an NBT positivity (HL-60 [6]) of 39%.
In the case of `CC(C)c1cccc(C(C)C)c1N1C(=O)c2cccc(O)c2C1=O`, the Cell proliferation (HL-60 [1]) is reported as 76% and the NBT positivity (HL-60 [2]) is reported as 3%.
In the case of `CC(C)c1cccc(C(C)C)c1N1C(=O)c2ccccc2C1=O`, the Cell proliferation (HL-60 [1]) is reported as 24% and the NBT positivity (HL-60 [2]) is reported as 9%.
For `CC(C)c1cccc(C(C)C)c1N1C(=O)c2ccc(O)cc2C1=O`, the Cell proliferation (HL-60 [7]) was 10%, the NBT positivity (HL-60 [3]) was 8% and the Cell proliferation (HL-60 [8]) was 94%. The Cell proliferation (HL-60 [4]) was 43%, the NBT positivity (HL-60 [9]) was 55% and the NBT positivity (HL-60 [10]) was 3%.
With `CC1=C(/C=C/C(C)=C/C=C/C(C)=C/C(=O)O)C(C)(C)CCC1` [TRETINOIN] the NBT positivity (HL-60 [11]) was 52% and the Cell proliferation (HL-60 [12]) was 45%.
